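1) Cells in 96-well plates. 2) Compound, 48 h, 5 concentrations. 3) Linear interpolation between surrounding doses. 4) Unreached endpoint = highest concentration. Abbreviation: GI50, concentration required for 50% inhibition of growth.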 Activity calls are given as the source filed them. Rule as the data show it: active = GI50 up to about 1.1 µM and inactive = higher.
Tests used:
Assay in all cases: inhibition of tumour cell growth, NCI panel, 48 h
ACHN = tested on: ACHN
CCRF-CEM = tested on: CCRF-CEM
DU-145 = tested on: DU-145
HOP-92 = tested on: HOP-92
HT-29 = tested on: HT-29
K562 = tested on: K562
M14 = tested on: M14
MCF7 = tested on: MCF7
OVCAR-3 = tested on: OVCAR-3
OVCAR-8 = tested on: OVCAR-8
SK-MEL-2 = tested on: SK-MEL-2
SK-MEL-5 = tested on: SK-MEL-5
SK-OV-3 = tested on: SK-OV-3
SNB-19 = tested on: SNB-19
SR = tested on: SR
SW-620 = tested on: SW-620
TK-10 = tested on: TK-10
NCI/ADR-RES = tested on: NCI/ADR-RES

Compound	GI50 (ACHN)	GI50 (CCRF-CEM)	GI50 (DU-145)	GI50 (HOP-92)	GI50 (HT-29)	GI50 (K562)	GI50 (M14)	GI50 (MCF7)	GI50 (OVCAR-3)	GI50 (OVCAR-8)	GI50 (SK-MEL-2)	GI50 (SK-MEL-5)	GI50 (SK-OV-3)	GI50 (SNB-19)	GI50 (SR)	GI50 (SW-620)	GI50 (TK-10)	GI50 (NCI/ADR-RES)
CC1C(O)Oc2cc3c(cc2C1c1ccccc1O)OCO3 (centres undefined)	29.6 µM (inactive)	16.7 µM (inactive)	40.6 µM (inactive)	15.2 µM (inactive)	23.3 µM (inactive)	17.6 µM (inactive)	30.5 µM (inactive)	38.1 µM (inactive)	27.8 µM (inactive)	36.5 µM (inactive)	25.9 µM (inactive)	33.3 µM (inactive)	39.9 µM (inactive)	51.6 µM (inactive)	4.65 µM (inactive)	39.1 µM (inactive)	27.4 µM (inactive)	
C[C@H](c1ccccc1)N1C(=O)[C@@H](OCc2ccccc2)[C@H]1[C@H](COC(=O)COCc1ccccc1)OCc1ccccc1	> 100 µM (inactive)	> 100 µM (inactive)	> 100 µM (inactive)	> 100 µM (inactive)		> 100 µM (inactive)	> 100 µM (inactive)	> 100 µM (inactive)	> 100 µM (inactive)		> 100 µM (inactive)	58.7 µM (inactive)	> 100 µM (inactive)	37.1 µM (inactive)	> 100 µM (inactive)	> 100 µM (inactive)	> 100 µM (inactive)	
Cc1ccc(Cl)c2[nH]c(-c3ccccc3)cc(=O)c12	30.3 µM (inactive)	38.5 µM (inactive)	43.7 µM (inactive)		43.5 µM (inactive)	30.1 µM (inactive)	39.8 µM (inactive)	3.18 µM (inactive)	36.1 µM (inactive)	50.9 µM (inactive)	65.6 µM (inactive)	15.8 µM (inactive)	> 100 µM (inactive)			39.2 µM (inactive)	47.2 µM (inactive)	57.4 µM (inactive)
Cc1nc2ccccc2c(=O)n1NC(=O)Cc1ccccc1	> 100 µM (inactive)	> 100 µM (inactive)	> 100 µM (inactive)	> 100 µM (inactive)	> 100 µM (inactive)	> 100 µM (inactive)	> 100 µM (inactive)	> 100 µM (inactive)	> 100 µM (inactive)	> 100 µM (inactive)		> 100 µM (inactive)	> 100 µM (inactive)	> 100 µM (inactive)	> 100 µM (inactive)	> 100 µM (inactive)	> 100 µM (inactive)	
CCCCC(CCCC)=NNC(=S)SC	29.6 µM (inactive)		30.3 µM (inactive)	38.6 µM (inactive)	33.6 µM (inactive)	29.6 µM (inactive)	17.3 µM (inactive)	28.6 µM (inactive)		19.2 µM (inactive)	36.4 µM (inactive)	16.1 µM (inactive)	> 100 µM (inactive)	24.3 µM (inactive)		38.9 µM (inactive)	17 µM (inactive)	25.1 µM (inactive)
COC(=O)CCC(=O)c1ccc2c(c1)CC1(Cc3ccccc3C1)C2	56.2 µM (inactive)	16.4 µM (inactive)		31.3 µM (inactive)	20.1 µM (inactive)	0.218 µM (active)	> 100 µM (inactive)	85.5 µM (inactive)	57.8 µM (inactive)	47.1 µM (inactive)	34.7 µM (inactive)	16.2 µM (inactive)	> 100 µM (inactive)		14.7 µM (inactive)		78.7 µM (inactive)	64 µM (inactive)
CCOP(=O)(/C=C\n1ccc(N)nc1=O)OCC	> 100 µM (inactive)	> 100 µM (inactive)	> 100 µM (inactive)		> 100 µM (inactive)	> 100 µM (inactive)	> 100 µM (inactive)	> 100 µM (inactive)	> 100 µM (inactive)	> 100 µM (inactive)	> 100 µM (inactive)	> 100 µM (inactive)	> 100 µM (inactive)	> 100 µM (inactive)		> 100 µM (inactive)	> 100 µM (inactive)	> 100 µM (inactive)

Source: ChEMBL document CHEMBL1201862, “PubChem BioAssay data set” (2004)
